# Data as given in ChEMBL document CHEMBL3102801, “Synthesis and antiproliferative activity of new derivatives containing the polycyclic system 5,7:7,13-dimethanopyrazolo[3,4-b]pyrazolo[3',4':2,3]azepino[4,5-f]azocine” (Eur J Med Chem, 2014).
# Columns and labels:
# [1] = test system: COLO 205; test: Growth inhibition of human COLO205 cells after 48 hrs by sulforhodamine B assay; type: functional; details: COLO 205, 48 h
# [2] = Growth inhibition of human UACC257 cells after 48 hrs by sulforhodamine B assay; type: functional; details: UACC-257, 48 h
# [3] = test system: SN12C; test: Growth inhibition of human SN12C cells after 48 hrs by sulforhodamine B assay; type: functional
# [4] = test system: HT-29; test: Growth inhibition of human HT-29 cells after 48 hrs by sulforhodamine B assay; type: functional; details: HT-29, 48 h
# [5] = Growth inhibition of human UO31 cells after 48 hrs by sulforhodamine B assay; type: functional; details: UO-31, 48 h
# [6] = Growth inhibition of human SF539 cells after 48 hrs by sulforhodamine B assay; type: functional; details: SF-539, 48 h
# [7] = test system: SR; test: Growth inhibition of human SR cells after 48 hrs by sulforhodamine B assay; type: functional
# [8] = test system: MDA-MB-231; test: Cell cycle arrest in human MDA-MB-231 cells assessed as accumulation of sub-G0-G1 phase at 5 uM after 48 hrs using propidium iodide staining by flow cytometric analysis (reference value: 8.4%); type: functional
# [9] = test system: SK-OV-3; test: Growth inhibition of human SKOV3 cells after 48 hrs by sulforhodamine B assay; type: functional; details: SK-OV-3, 48 h
# [10] = Growth inhibition of human NCI-ADR-RES cells after 48 hrs by sulforhodamine B assay; type: functional
# [11] = Cytotoxicity against human HuDe cells after 48 hrs by sulforhodamine B assay; type: cell-based
# [12] = test system: SF-268; test: Growth inhibition of human SF268 cells after 48 hrs by sulforhodamine B assay; type: functional; details: SF-268, 48 h
# [13] = test system: SK-MEL-5; test: Growth inhibition of human SK-MEL-5 cells after 48 hrs by sulforhodamine B assay; type: functional; details: SK-MEL-5, 48 h
# [14] = test system: MDA-MB-231; test: Cell cycle arrest in human MDA-MB-231 cells assessed as accumulation of G0-G1 phase at 10 uM after 48 hrs using propidium iodide staining by flow cytometric analysis (reference value: 42.2%); type: functional
# [15] = Growth inhibition of human HOP92 cells after 48 hrs by sulforhodamine B assay; type: functional; details: HOP-92, 48 h
# [16] = test system: HCT-116; test: Cell cycle arrest in human HCT116 cells assessed as accumulation of G0-G1 phase at 5 uM after 48 hrs using propidium iodide staining by flow cytometric analysis (reference value: 45.7%); type: functional
# [17] = test system: HCT-116; test: Cell cycle arrest in human HCT116 cells assessed as accumulation of sub-G0-G1 phase at 5 uM after 48 hrs using propidium iodide staining by flow cytometric analysis (reference value: 15.2%); type: functional
# [18] = Therapeutic index, ratio of IC50 for human HeDe cells to IC50 for human HCT116 cells; type: cell-based, HCT-116; details: HeDe cells versus HCT116 cells, read-out: TI
# [19] = test system: A549; test: Growth inhibition of human A549 cells after 48 hrs by sulforhodamine B assay; type: functional; details: A549, 48 h
# [20] = test system: U-251; test: Growth inhibition of human U251 cells after 48 hrs by sulforhodamine B assay; type: functional; details: U-251, 48 h
# [21] = test system: A498; test: Growth inhibition of human A498 cells after 48 hrs by sulforhodamine B assay; type: functional; details: A498, 48 h
# [22] = Growth inhibition of human Hs 578T cells after 48 hrs by sulforhodamine B assay; type: functional
# [23] = Growth inhibition of human RXF393 cells after 48 hrs by sulforhodamine B assay; type: functional; details: RXF 393, 48 h
# [24] = test system: NCI-H23; test: Growth inhibition of human NCI-H23 cells after 48 hrs by sulforhodamine B assay; type: functional; details: NCI-H23, 48 h
# [25] = test system: OVCAR-8; test: Growth inhibition of human OVCAR8 cells after 48 hrs by sulforhodamine B assay; type: functional; details: OVCAR-8, 48 h
# [26] = test system: HCT-116; test: Cell cycle arrest in human HCT116 cells assessed as accumulation of G0-G1 phase at 10 uM after 48 hrs using propidium iodide staining by flow cytometric analysis (reference value: 45.7%); type: functional
# [27] = test system: T47D; test: Growth inhibition of human T47D cells after 48 hrs by sulforhodamine B assay; type: functional
# [28] = test system: BT-549; test: Growth inhibition of human BT549 cells after 48 hrs by sulforhodamine B assay; type: functional; details: BT-549, 48 h
# [29] = test system: MDA-MB-468; test: Growth inhibition of human MDA-MB-468 cells after 48 hrs by sulforhodamine B assay; type: functional; details: MDA-MB-468, 48 h
# [30] = test system: MOLT-4; test: Growth inhibition of human MOLT4 cells after 48 hrs by sulforhodamine B assay; type: functional; details: MOLT-4, 48 h
# [31] = test system: MDA-MB-231; test: Cell cycle arrest in human MDA-MB-231 cells assessed as accumulation of G2-M phase at 5 uM after 48 hrs using propidium iodide staining by flow cytometric analysis (reference value: 27.5%); type: functional
# [32] = test system: IGROV-1; test: Growth inhibition of human IGROV1 cells after 48 hrs by sulforhodamine B assay; type: functional; details: IGROV-1, 48 h
# [33] = test system: LOX IMVI; test: Growth inhibition of human LOXIMVI cells after 48 hrs by sulforhodamine B assay; type: functional
# [34] = test system: OVCAR-3; test: Growth inhibition of human OVCAR3 cells after 48 hrs by sulforhodamine B assay; type: functional; details: OVCAR-3, 48 h
# [35] = test system: HCT-15; test: Growth inhibition of human HCT15 cells after 48 hrs by sulforhodamine B assay; type: functional; details: HCT-15, 48 h
smiles,measurement,setting,value
C=C1c2c(C)nn(-c3ccc(OC)cc3)c2N(C)C23CC1C1(C)c4c(C)nn(-c5ccc(OC)cc5)c4N(C)C(C)(CC12)C3 (stereo not given),GI50,[1],2.2 µM
same,GI50,[2],2.68 µM
same,GI50,[3],3.65 µM
same,GI50,[4],3.24 µM
same,GI50,[5],2.61 µM
same,GI50,[6],3.16 µM
same,GI50,[7],3.16 µM
same,Activity,[8],11.5%
same,GI50,[9],3.39 µM
same,GI50,[10],4.04 µM
same,IC50,[11],76 µM
same,GI50,[12],3.63 µM
same,GI50,[13],1.73 µM
same,Activity,[14],58.2%
same,GI50,[15],1.18 µM
same,Activity,[16],59%
same,Activity,[17],14.3%
same,selectivity ratio,[18],26.9
same,GI50,[19],2.69 µM
same,GI50,[20],2.67 µM
same,GI50,[21],2.47 µM
same,GI50,[22],6.24 µM
same,GI50,[23],1.9 µM
same,GI50,[24],3.86 µM
same,GI50,[25],3.4 µM
same,Activity,[26],63.8%
same,GI50,[27],1.81 µM
same,GI50,[28],3.1 µM
same,GI50,[29],2.5 µM
same,GI50,[30],2.6 µM
same,Activity,[31],18.6%
same,GI50,[32],7.54 µM
same,GI50,[33],2.24 µM
same,GI50,[34],3.27 µM
same,GI50,[35],3.11 µM
